# In patent publication US8232305B2, “Anti-microbial compositions” (BASF SE, priority 2006, dated 2012):
# Legend:
# cocci, rods and fungi = settings: Pernak et al., 226th ACS National Meeting 2003; cited from earlier work
# Escherichia coli = test: Microbicidal activity according to EN1040; type: cell-based; settings: 1000 ppm, room temperature, vs growth control in water
# Protocol: (§1) A bacterial suspension with a cell count of about 10^7 cfu/ml is contacted with appropriate concentrations of the specific substances and the residual cell count determined after incubation times of 5 and 30 minutes at room temperature under continuous stirring. Staphylococcus aureus was tested as gram+ and Escherichia coli as gram− organism. The results are given as a log reduction in comparison to a growth control in water.
# Staphylococcus aureus = test: Microbicidal activity according to EN1040; type: cell-based; settings: 1000 ppm, room temperature, vs growth control in water
# Protocol: as §1
# A. niger ATCC 16404 = test: Microbicidal activity under conditions similar to a preservative challenge test; type: cell-based; settings: 0.5%, inoculum 10^5 cfu/ml
# Protocol: as §1
# (§2) The test procedure of Example 7 is used, with an inoculum concentration of 10^5 cfu/ml and incubation times of 48 and 72 hours; figures given as log reduction.
# C. albicans ATCC 10231 = test: as above; type: cell-based; settings: 0.5%, inoculum 10^5 cfu/ml
# Protocol: as §1, §2
# E. coli ATCC 10536 = test: as above; type: cell-based; settings: 0.5%, inoculum 10^5 cfu/ml
# Protocol: as §1, §2
# P. aeruginosa ATCC 15442 = test: as above; type: cell-based; settings: 0.5%, inoculum 10^5 cfu/ml
# Protocol: as §1, §2
# S. aureus ATCC 6538 = test: as above; type: cell-based; settings: 0.5%, inoculum 10^5 cfu/ml
# Protocol: as §1, §2
# Aspergillus niger = test: Fungicidal activity according to EN12175; type: cell-based; settings: spores about 10^6 cfu/ml, vs water control
# Protocol: (§3) Fungicidal activity is tested according to EN12175. A fungal spore suspension with a spore cell count of about 10^6 cfu/ml is contacted with appropriate concentrations of the specific substances and the residual spore cell count determined after incubation times of 30 and 60 minutes at room temperature under continuous stirring. Penicillium funiculosum, Aspergillus niger and Aureobasidium pullulans are tested as important mold strains. The results are given as a log reduction at each incubation time in comparison to a water control.
# Aureobasidium pullulans = test: Fungicidal activity according to EN12175; type: cell-based; settings: spores about 10^6 cfu/ml, vs water control
# Protocol: as §3
# Penicillium funiculosum = test: Fungicidal activity according to EN12175; type: cell-based; settings: spores about 10^6 cfu/ml, vs water control
# Protocol: as §3
# A. niger = test: Preservative challenge test in cosmetic emulsions (EurPh and USP); type: cell-based; settings: 0.5% w/w
# Protocol: (§4) A preservative challenge test is conducted for representative cosmetic formulations according to the conditions of the EurPh and USP. The compound concentration in the formulations is 0.5% w/w. The Inoculum concentration of the five different strains is 2.1-4.2×10^5 cfu/ml, incubation time according to EurPh. 2, 7, 14 and 28 days. Preservation is investigated in two different emulsion types, w/o and o/w.
# C. albicans = test: as above; type: cell-based; settings: 0.5% w/w
# Protocol: as §4
# E. coli = test: as above; type: cell-based; settings: 0.5% w/w
# Protocol: as §4
# P. aerug. = test: as above; type: cell-based; settings: 0.5% w/w
# Protocol: as §4
# S. aureus = test: as above; type: cell-based; settings: 0.5% w/w
# Protocol: as §4
compound,measurement,setting,value
CCCCCCCCOC[n+]1ccn(C)c1.F[B-](F)(F)F [1-methyl-3-octyloxymethylimidazolium tetrafluoroborate],"effectiveness against cocci, rods and fungi","cocci, rods and fungi",the most effective of the ionic liquids tested
"CCCCCCCCOC(=O)C[n+]1ccn(C)c1.[Br-] [Ex 2, 1-methyl-3-(2-oxo-2-octyloxyethyl)-1H-Imidazolium bromide]",log reduction E. coli 5 min.,Escherichia coli; 5 min,<1 log
same,log reduction E. coli 30 min.,Escherichia coli; 30 min,1.2 log
same,log reduction S. aureus 5 min.,Staphylococcus aureus; 5 min,3.2 log
same,log reduction S. aureus 30 min.,Staphylococcus aureus; 30 min,3.7 log
same,log reduction A. niger ATCC 16404 48 h,A. niger ATCC 16404; 48 h,1.8 log
same,log reduction A. niger ATCC 16404 72 h,A. niger ATCC 16404; 72 h,2.3 log
same,log reduction C. albicans ATCC 10231 48 h,C. albicans ATCC 10231; 48 h,>3 log
same,log reduction C. albicans ATCC 10231 72 h,C. albicans ATCC 10231; 72 h,>3 log
same,log reduction E. coli ATCC 10536 48 h,E. coli ATCC 10536; 48 h,>3 log
same,log reduction E. coli ATCC 10536 72 h,E. coli ATCC 10536; 72 h,>3 log
same,log reduction P. aeruginosa ATCC 15442 48 h,P. aeruginosa ATCC 15442; 48 h,>3 log
same,log reduction P. aeruginosa ATCC 15442 72 h,P. aeruginosa ATCC 15442; 72 h,>3 log
same,log reduction S. aureus ATCC 6538 48 h,S. aureus ATCC 6538; 48 h,>3 log
same,log reduction S. aureus ATCC 6538 72 h,S. aureus ATCC 6538; 72 h,>3 log
same,log reduction A. niger 30 min,"Aspergillus niger; 1%, 30 min",<1 log
same,log reduction A. niger 1 h,Aspergillus niger; 1 h,2.0 log
same,log reduction A. pullulans 30 min,"Aureobasidium pullulans; 1%, 30 min",>4 log
same,log reduction A. pullulans 1 h,Aureobasidium pullulans; 1 h,>4 log
same,log reduction P. funiculosum 30 min,"Penicillium funiculosum; 1%, 30 min",<1 log
same,log reduction P. funiculosum 1 h,Penicillium funiculosum; 1 h,<1 log
same,Log Reduction A. niger,"A. niger; O/W emulsion, 2 days",0 log
same,Log Reduction A. niger,"A. niger; O/W emulsion, 7 days",0 log
same,Log Reduction A. niger,"A. niger; O/W emulsion, 14 days",0 log
same,Log Reduction A. niger,"A. niger; O/W emulsion, 28 days",0 log
same,Log Reduction A. niger,"A. niger; W/O emulsion, 2 days",0 log
same,Log Reduction A. niger,"A. niger; W/O emulsion, 7 days",0 log
same,Log Reduction A. niger,"A. niger; W/O emulsion, 14 days",0 log
same,Log Reduction A. niger,"A. niger; W/O emulsion, 28 days",0 log
same,Log Reduction C. albicans,"C. albicans; O/W emulsion, 2 days",0 log
same,Log Reduction C. albicans,"C. albicans; O/W emulsion, 7 days",2 log
same,Log Reduction C. albicans,"C. albicans; O/W emulsion, 14 days",≧3 log
same,Log Reduction C. albicans,"C. albicans; O/W emulsion, 28 days",5 log
same,Log Reduction C. albicans,"C. albicans; W/O emulsion, 2 days",1 log
same,Log Reduction C. albicans,"C. albicans; W/O emulsion, 7 days",≧3 log
same,Log Reduction C. albicans,"C. albicans; W/O emulsion, 14 days",5 log
same,Log Reduction C. albicans,"C. albicans; W/O emulsion, 28 days",5 log
same,Log Reduction E. coli,"E. coli; O/W emulsion, 2 days",3 log
same,Log Reduction E. coli,"E. coli; O/W emulsion, 7 days",≧4 log
same,Log Reduction E. coli,"E. coli; O/W emulsion, 14 days",6 log
same,Log Reduction E. coli,"E. coli; O/W emulsion, 28 days",6 log
same,Log Reduction E. coli,"E. coli; W/O emulsion, 2 days",6 log
same,Log Reduction E. coli,"E. coli; W/O emulsion, 7 days",6 log
same,Log Reduction E. coli,"E. coli; W/O emulsion, 14 days",6 log
same,Log Reduction E. coli,"E. coli; W/O emulsion, 28 days",6 log
same,Log Reduction P. aerug.,"P. aerug.; O/W emulsion, 2 days",≧4 log
same,Log Reduction P. aerug.,"P. aerug.; O/W emulsion, 7 days",5 log
same,Log Reduction P. aerug.,"P. aerug.; O/W emulsion, 14 days",5 log
same,Log Reduction P. aerug.,"P. aerug.; O/W emulsion, 28 days",5 log
same,Log Reduction P. aerug.,"P. aerug.; W/O emulsion, 2 days",5 log
same,Log Reduction P. aerug.,"P. aerug.; W/O emulsion, 7 days",5 log
same,Log Reduction P. aerug.,"P. aerug.; W/O emulsion, 14 days",5 log
same,Log Reduction P. aerug.,"P. aerug.; W/O emulsion, 28 days",5 log
same,Log Reduction S. aureus,"S. aureus; O/W emulsion, 2 days",≧4 log
same,Log Reduction S. aureus,"S. aureus; O/W emulsion, 7 days",6 log
same,Log Reduction S. aureus,"S. aureus; O/W emulsion, 14 days",6 log
same,Log Reduction S. aureus,"S. aureus; O/W emulsion, 28 days",6 log
same,Log Reduction S. aureus,"S. aureus; W/O emulsion, 2 days",6 log
same,Log Reduction S. aureus,"S. aureus; W/O emulsion, 7 days",6 log
same,Log Reduction S. aureus,"S. aureus; W/O emulsion, 14 days",6 log
same,Log Reduction S. aureus,"S. aureus; W/O emulsion, 28 days",6 log
